Assay results taken from US12252487B2, “Dominant salt forms of pyrimidine derivatives, and crystal forms thereof” (GUANGDONG RAYNOVENT BIOTECH CO., LTD., priority 2019, dated 2025).
In brackets after ≈: the same amount, converted by molar mass.

Assays:
Format in all cases: physicochemical
[1] = Crystal form transition observed during experiment / post-treatment; conditions: e.g. drying under vacuum at ambient temperature
Excerpt: The crystal form VII and the crystal form VIII can be obtained by similar method but by different post-treatment means.

[2] = Solubility of Compound 1 in 19 types of solvents at room temperature; conditions: for solubility: thermodynamic from solid
Excerpt: Compound 1 was detected at room temperature for its solubility in 19 types of solvents. Specially, Compound 1 obtained in Example 1 was taken as sample for detecting its solubility in methanol, ethanol, water, acetonitrile, dioxane and other solvents.

[3] = Stability study of crystal forms, XRPD characterization on day 14
Procedure: An amount of sample to be tested was weighed and placed in a dish under conditions including high temperature (60° C.), high humidity (25° C., 92.5% RH), light radiation (25° C., 4500 Lux) and acceleration conditions (40° C., 75% RH), respectively, and sampled for XRPD characterization on day 14. Form I, Form II, Form III were taken for stability study under conditions including high temperature (60° C.), high humidity (25° C., 92.5% RH), light radiation (25° C., 4500 Lux), and acceleration conditions (40° C., 75% RH), and the results are shown in Table 2: […]

[4] = XRPD of crystal form after DVS test
Excerpt: The crystal form IV is obtained by heating the crystal form III to lose some crystalline water.

Compound: O=C(O)[C@H]1C2CCC(CC2)[C@@H]1Nc1nc(-c2n[nH]c3ncc(F)cc23)nc(C2CC2)c1F [crystal form VIII]
- Stability of the crystal form as concluded from crystal form transitions [1]: high stability

Compound: O=C(O)[C@H]1C2CCC(CC2)[C@@H]1Nc1nc(-c2n[nH]c3ncc(F)cc23)nc(C2CC2)c1F [crystal form VI]
- Stability of the crystal form as concluded from crystal form transitions [1]: unstable crystal form

Compound: O=C(O)[C@H]1C2CCC(CC2)[C@@H]1Nc1nc(-c2n[nH]c3ncc(F)cc23)nc(C2CC2)c1F [Compound 1]
- Solubility as a whole compared with WX-216 ([2]; 19 solvents, room temperature): better than that of WX-216
- solubility ([2]; organic solvent or mixture, solvent Acetone, 3000 μL, not dissolved completely at 50° C.): < 3300 µg/mL
- solubility ([2]; organic solvent or mixture, solvent Acetonitrile, 3000 μL, not dissolved completely at 50° C.): < 3300 µg/mL
- solubility ([2]; organic solvent or mixture, solvent Dichloromethane, 3000 μL, not dissolved completely at 50° C.): < 3300 µg/mL
- solubility ([2]; organic solvent or mixture, solvent Dimethylformamide, 200 μL): > 50000 µg/mL
- solubility ([2]; organic solvent or mixture, solvent Dimethylsulfoxide, 200 μL): > 50000 µg/mL
- solubility ([2]; organic solvent or mixture, solvent Dioxane, 3000 μL, not dissolved completely at 50° C.): < 3300 µg/mL
- solubility ([2]; organic solvent or mixture, solvent Ethanol, 3000 μL, not dissolved completely at 50° C.): < 3300 µg/mL
- solubility ([2]; organic solvent or mixture, solvent Ethyl acetate, 3000 μL, not dissolved completely at 50° C.): < 3300 µg/mL
- solubility ([2]; organic solvent or mixture, solvent Ethyl formate, 3000 μL, not dissolved completely at 50° C.): < 3300 µg/mL
- solubility ([2]; organic solvent or mixture, solvent Ethylene glycol dimethyl ether, 3000 μL, not dissolved completely at 50° C.): < 3300 µg/mL
- solubility ([2]; organic solvent or mixture, solvent Ethylene glycol monomethyl ether, 200 μL): > 50000 µg/mL
- solubility ([2]; organic solvent or mixture, solvent Iso-propanol, 3000 μL, not dissolved completely at 50° C.): < 3300 µg/mL
- solubility ([2]; organic solvent or mixture, solvent Methanol, 500 μL): 20000 to 50000 µg/mL (≈ 45.4 to 114 mM)
- solubility ([2]; organic solvent or mixture, solvent Methyl isobutyl ketone, 3000 μL, not dissolved completely at 50° C.): < 3300 µg/mL
- solubility ([2]; organic solvent or mixture, solvent Methyl tert-butyl ether, 3000 μL, not dissolved completely at 50° C.): < 3300 µg/mL
- solubility ([2]; organic solvent or mixture, solvent N-hexane, 3000 μL, not dissolved completely at 50° C.): < 3300 µg/mL
- solubility ([2]; organic solvent or mixture, solvent N-propanol, 3000 μL, not dissolved completely at 50° C.): < 3300 µg/mL
- solubility ([2]; organic solvent or mixture, solvent Tetrahydrofuran, 3000 μL, not dissolved completely at 50° C.): < 3300 µg/mL
- solubility ([2]; solvent Water, 200 μL): > 50000 µg/mL

Compound: O=C(O)[C@H]1C2CCC(CC2)[C@@H]1Nc1nc(-c2n[nH]c3ncc(F)cc23)nc(C2CC2)c1F [crystal form VII]
- Stability of the crystal form as concluded from crystal form transitions [1]: high stability

Compound: O=C(O)[C@H]1C2CCC(CC2)[C@@H]1Nc1nc(-c2n[nH]c3ncc(F)cc23)nc(C2CC2)c1F [Crystal Form II]
- Results on Day 14 (XRPD) ([3]; High humidity (25° C., 92.5% RH)): No changes
- Results on Day 14 (XRPD) ([3]; High temperature (60° C.)): No changes

Compound: O=C(O)[C@H]1C2CCC(CC2)[C@@H]1Nc1nc(-c2n[nH]c3ncc(F)cc23)nc(C2CC2)c1F [crystal form IV]
- Crystal form change after DVS test (XRPD) [4]: does not change

Compound: O=C(O)[C@H]1C2CCC(CC2)[C@@H]1Nc1nc(-c2n[nH]c3ncc(F)cc23)nc(C2CC2)c1F [Crystal Form I]
- Results on Day 14 (XRPD) ([3]; Acceleration conditions (40° C., 75% RH)): No changes
- Results on Day 14 (XRPD) ([3]; Light radiation (25° C., 4500 Lux)): No changes

Compound: O=C(O)[C@H]1C2CCC(CC2)[C@@H]1Nc1nc(-c2n[nH]c3ncc(F)cc23)nc(C2CC2)c1F [crystal form IX]
- Stability of the crystal form as concluded from crystal form transitions [1]: intermediate metastable crystal form

Compound: O=C(O)[C@H]1C2CCC(CC2)[C@@H]1Nc1nc(-c2n[nH]c3ncc(F)cc23)nc(C2CC2)c1F [crystal form V]
- Stability of the crystal form as concluded from crystal form transitions [1]: high stability
